Patent US6630612B2, “5-HT3 receptor assay using transgenic mammal” (University of New Mexico, priority 1997, dated 2003)
Several values for one entry are separate records, joined by “and”; a condition that tells them apart may be missing. Identical values can stand only once.

Experiments:
5-HT3 receptor [1] = test: Homogenate saturation binding with 3H-GR65630 in cortical membranes of transgenic and B6SJL/F1 control mice; set-up: species or system mouse; details: cortical membranes, B6SJL/F1 control mice
Protocol: (§1) For homogenate binding studies, cortices and cerebelli were removed and homogenized by hand in ice cold Hepes buffer (50 mM, pH 7.5) and centrifuged at 500 g for 5 minutes at 4° C. Liver, lung, heart, spleen, kidney, small intestines, testes, and skeletal muscle (from hind limb) were homogenized with an Omni tissue chopper. Membranes were pelleted by centrifugation at 20,000 g for 20 minutes at 4° C. and the pellets washed twice before suspension to 3 mg/ml in a buffer containing 145 mM NaCl, 5 mM KCl, 1, mM MgCl2, 1 mM CaCl2, 10 mM glucose, and 10 mM TRIS, pH 7.5. Saturation curves were carried out with 0.0125-25 nM ^3H-GR65630 at 37° C. for 30 minutes with 300 μg total protein. Incubation was terminated by dilution with ×10 volume (5 ml) of ice-cold buffer followed by rapid filtration onto Whatman GF/B filters. Filters were washed twice with 5 ml ice-cold buffer and counted by scintillation counting in EcoLite (ICN) scintillation cocktail. Non-specific binding (NSB) was determined with 0.125-256 μM tropisetron. Displacement binding was carried out the same as saturation binding except with 1 nM ^3H-GR65630 and NSB defined with 10 μM tropisetron. Protein concentrations were determined by Folin phenol reagent (Lowry et al., J. Biol. Chem. 193: 256-275, 1951).

5-HT3 receptor [2] = target: T1, 5-HT3 receptor (Mus musculus, UniProt P23979); test: as above
T1 construct: cortices and cerebelli were removed and homogenized by hand in ice cold Hepes buffer; from tissue; host or cells: Washed membranes from cortex, cerebellum, liver, lung, heart, spleen, kidney, small intestine, testis and skeletal muscle of transgenic and B6SJL/F1 control mice
T1 sequence (P23979 24-489): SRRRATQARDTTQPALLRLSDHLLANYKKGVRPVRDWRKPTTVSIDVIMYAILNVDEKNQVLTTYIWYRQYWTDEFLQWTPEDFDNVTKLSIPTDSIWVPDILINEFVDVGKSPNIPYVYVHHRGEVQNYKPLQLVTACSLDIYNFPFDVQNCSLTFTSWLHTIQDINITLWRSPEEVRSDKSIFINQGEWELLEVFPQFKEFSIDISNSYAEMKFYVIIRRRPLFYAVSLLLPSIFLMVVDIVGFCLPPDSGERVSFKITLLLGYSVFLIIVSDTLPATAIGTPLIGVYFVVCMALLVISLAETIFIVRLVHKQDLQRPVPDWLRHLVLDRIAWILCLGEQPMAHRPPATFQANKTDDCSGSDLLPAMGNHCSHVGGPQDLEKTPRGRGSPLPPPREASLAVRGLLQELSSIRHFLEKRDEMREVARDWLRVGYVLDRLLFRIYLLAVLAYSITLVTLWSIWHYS
Protocol: as §1

5-HT3 receptor [3] = test: Specific binding with 3H-GR65630 in membranes from various tissues of transgenic and B6SJL/F1 control mice; set-up: species or system mouse
Protocol: as §1

5-HT3 receptor [4] = target: T1, 5-HT3 receptor; test: as above; details: Cortex membranes, transgenic mice
Protocol: as §1

[5] = cortical membranes, 5-HT3 transgenic mice

Structure (SMILES): Cc1[nH]cnc1CCC(=O)c1cn(C)c2ccccc12 [^3H-GR65630]
- Bmax (5-HT3 receptor [1]): 21 fmol/mg protein and 21±10 fmol/mg protein
- Kd (5-HT3 receptor [1]; n=3 (FIG. 2 legend, unit inferred)): 1.6 ± 2.3 nM
- Bmax (5-HT3 receptor [2]; [5]): 2155 fmol/mg protein and 2155±129 fmol/mg protein
- Hill no. (Hill plot slope) (5-HT3 receptor [2]; [5]): 1.0
- Kd (5-HT3 receptor [2]; [5]): 1.7 nM
- Bmax (5-HT3 receptor [2]; transgenic mice membranes): 2.5 pmol/mg protein
- Specific binding (means ± SEM) (5-HT3 receptor [3]; Cortex membranes, B6SJL/F1 control mice): 7.2 ± 2.9 fmol/mg protein
- Specific binding (means ± SEM) (5-HT3 receptor [3]; Heart membranes, B6SJL/F1 control mice): 0.25 ± 5.4 fmol/mg protein
- Specific binding (means ± SEM) (5-HT3 receptor [3]; Heart membranes, transgenic mice): 3.9 ± 1.8 fmol/mg protein
- Specific binding (means ± SEM) (5-HT3 receptor [3]; Kidney membranes, B6SJL/F1 control mice): 3.9 ± 3.1 fmol/mg protein
- Specific binding (means ± SEM) (5-HT3 receptor [3]; Kidney membranes, transgenic mice): 16.9 ± 8.0 fmol/mg protein
- Specific binding (means ± SEM) (5-HT3 receptor [3]; Lung membranes, transgenic mice): 2.7 ± 4.1 fmol/mg protein
- Specific binding (means ± SEM) (5-HT3 receptor [3]; Skeletal muscle membranes, B6SJL/F1 control mice): 2.7 ± 0.4 fmol/mg protein
- Specific binding (means ± SEM) (5-HT3 receptor [3]; Skeletal muscle membranes, transgenic mice): 8.0 ± 2.7 fmol/mg protein
- Specific binding (means ± SEM) (5-HT3 receptor [3]; Small intestines membranes, B6SJL/F1 control mice): 26.6 ± 11.0 fmol/mg protein
- Specific binding (means ± SEM) (5-HT3 receptor [3]; Small intestines membranes, transgenic mice): 26.0 ± 7.7 fmol/mg protein
- Specific binding (means ± SEM) (5-HT3 receptor [3]; Spleen membranes, B6SJL/F1 control mice): 1.7 ± 3.9 fmol/mg protein
- Specific binding (means ± SEM) (5-HT3 receptor [3]; Spleen membranes, transgenic mice): 8.2 ± 7.2 fmol/mg protein
- Specific binding (means ± SEM) (5-HT3 receptor [4]): 969.6 ± 190.5 fmol/mg protein
